Consider eight molecules from PubChem BioAssay (NCI).

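Protocol summary: plate cells (96-well), add compound at 5 concentrations, incubate 48 h, interpolate endpoints linearly. The concentration for 50% growth inhibition is given as GI50. Definition used: TGI = concentration required for complete inhibition of growth.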

Test systems include SNB-75 CNS; TK-10 renal; A549 NSCLC; OVCAR-8 ovarian; MDA-MB-231 breast; NCI-H522 lung; ACHN renal; OVCAR-3 ovarian; EKVX NSCLC; SN12C renal.
Common to all, as to assay: NCI anticancer screen, dose series, 48 h

As to `COc1ccc2nc3ccc(OC)cc3c(SCCCN)c2c1`, the GI50 in the experiment on SNB-75 CNS was 13 µM; in the experiment with TK-10 renal, 2.03 µM; with A549 NSCLC, 12.9 µM; in the experiment with OVCAR-8 ovarian it was 5.13 µM; in the experiment on MDA-MB-231 breast it was 9.78 µM; in the experiment on NCI-H522 lung it was 1.51 µM. In addition, the GI50 in the experiment on ACHN renal is 4.72 µM; in the experiment on OVCAR-3 ovarian, 2.73 µM; in the experiment on EKVX NSCLC, 15.9 µM; in the experiment on SN12C renal, 10.8 µM. The TGI in the experiment with SNB-75 CNS is 27.9 µM; in the experiment with TK-10 renal, 10.5 µM; in the experiment on A549 NSCLC it was 38.5 µM; with OVCAR-8 ovarian, 12.9 µM; with MDA-MB-231 breast, 25.3 µM; with NCI-H522 lung, 3.09 µM. Besides, the TGI in the experiment on ACHN renal amounted to 19.5 µM; in the experiment with OVCAR-3 ovarian it was 6.88 µM; with EKVX NSCLC, 35.6 µM; in the experiment with SN12C renal it was 25.5 µM.
`c1ccc2c(c1)nc(NCCN1CCNCC1)c1c3ccccc3[nH]c21`: the GI50 is 1.44 µM in the experiment on SNB-75 CNS; 1.34 µM with TK-10 renal; 0.206 µM in the experiment with A549 NSCLC; 0.111 µM in the experiment with OVCAR-8 ovarian; 0.676 µM with MDA-MB-231 breast; 0.22 µM in the experiment with NCI-H522 lung. Besides, the GI50 with ACHN renal is 0.369 µM; with OVCAR-3 ovarian it was 0.413 µM; in the experiment on EKVX NSCLC it was 0.742 µM; with SN12C renal, 0.19 µM. Also, the TGI in the experiment with SNB-75 CNS came to 2.86 µM; in the experiment on TK-10 renal it was 6.91 µM; in the experiment with A549 NSCLC, 1.21 µM; in the experiment on OVCAR-8 ovarian, 0.883 µM; in the experiment with MDA-MB-231 breast, 2.28 µM; in the experiment on NCI-H522 lung, 1.07 µM. Also, the TGI came to 2.38 µM with ACHN renal, 2.51 µM in the experiment on OVCAR-3 ovarian, 4.38 µM in the experiment on EKVX NSCLC and 1.18 µM in the experiment on SN12C renal.
As to `COc1ccc2c(c1O)[C@@]13C=C(O)C(=O)C=C1[C@@H](C2)N(C)CC3`, the TGI in the experiment on SNB-75 CNS, in the experiment with TK-10 renal, with A549 NSCLC, in the experiment on OVCAR-8 ovarian, in the experiment with MDA-MB-231 breast and with NCI-H522 lung was over 100 µM throughout. The TGI with ACHN renal, in the experiment with OVCAR-3 ovarian, in the experiment on EKVX NSCLC and in the experiment with SN12C renal was over 100 µM each time.
With `COc1ccc(C[C@H]2C[C@@H](O)[C@@H](C)C/C=C/Cc3cccc(O)c3C(=O)O2)cn1`, the GI50 with SNB-75 CNS is 17 µM; in the experiment on TK-10 renal it was 24.5 µM; in the experiment with A549 NSCLC, 28.6 µM; in the experiment on OVCAR-8 ovarian it was 29.4 µM; in the experiment on MDA-MB-231 breast it was 16.4 µM; in the experiment on NCI-H522 lung it was 14.2 µM. Moreover, the GI50 in the experiment with ACHN renal was 25.5 µM; with OVCAR-3 ovarian, 50.5 µM; in the experiment with EKVX NSCLC, 32.1 µM; in the experiment on SN12C renal it was 19.4 µM. The TGI in the experiment on SNB-75 CNS was 73.4 µM; in the experiment with TK-10 renal it was 72.3 µM; in the experiment on A549 NSCLC, over 100 µM; with OVCAR-8 ovarian, over 100 µM; in the experiment on MDA-MB-231 breast, 39.6 µM; with NCI-H522 lung, 49.1 µM. Moreover, the TGI in the experiment on ACHN renal was 65.9 µM; in the experiment with OVCAR-3 ovarian, over 100 µM; with EKVX NSCLC it was over 100 µM; with SN12C renal, 43.9 µM.
For the molecule `Cc1cc(CS(=O)(=O)/C=C/c2ccccc2[N+](=O)[O-])c(CS(=O)(=O)/C=C/c2ccccc2[N+](=O)[O-])cc1C`, the TGI in the experiment on SNB-75 CNS is 32 µM; in the experiment on TK-10 renal, over 81.8 µM; in the experiment with A549 NSCLC it was over 100 µM; with OVCAR-8 ovarian, over 100 µM; with MDA-MB-231 breast it was over 51.2 µM; in the experiment with NCI-H522 lung it was over 100 µM. For the same molecule, the TGI in the experiment with ACHN renal, in the experiment with OVCAR-3 ovarian, with EKVX NSCLC and in the experiment with SN12C renal was over 100 µM in each case.
Turning to `N#CC1c2ccccc2-c2ccccc2N1C(=O)c1ccccc1` (stereo not given), the GI50 is 2.43 µM with SNB-75 CNS; 1.23 µM in the experiment with TK-10 renal; 2.97 µM in the experiment on A549 NSCLC; 3.63 µM with OVCAR-8 ovarian; 2.61 µM in the experiment with MDA-MB-231 breast; 0.223 µM in the experiment with NCI-H522 lung. Also, the GI50 in the experiment on ACHN renal was 4.05 µM; with OVCAR-3 ovarian, 0.748 µM; in the experiment with EKVX NSCLC, 7.2 µM; in the experiment with SN12C renal, 3.86 µM. Also, the TGI with SNB-75 CNS is over 49.4 µM; in the experiment on TK-10 renal it was 28.2 µM; in the experiment with A549 NSCLC it was over 38.8 µM; in the experiment on OVCAR-8 ovarian, 96.9 µM; in the experiment on MDA-MB-231 breast, 9.06 µM; with NCI-H522 lung, 1.48 µM. The TGI in the experiment on ACHN renal was over 100 µM; in the experiment with OVCAR-3 ovarian it was 2.47 µM; in the experiment on EKVX NSCLC, over 100 µM; in the experiment with SN12C renal, over 92.2 µM.
As for `COc1cc2oc3ccccc3c(=O)c2cc1CSc1ccccc1N`, the TGI in the experiment with SNB-75 CNS was over 100 µM; in the experiment with TK-10 renal, over 100 µM; in the experiment on A549 NSCLC, over 100 µM; with OVCAR-8 ovarian, over 100 µM; with MDA-MB-231 breast it was over 100 µM; in the experiment with NCI-H522 lung, 41.1 µM. Further, the TGI is over 100 µM in the experiment on ACHN renal, over 68.1 µM in the experiment with OVCAR-3 ovarian, over 100 µM with EKVX NSCLC and over 100 µM in the experiment with SN12C renal.
Regarding `CCCC/C(=N\N=C(N)N)c1ccc(F)cc1`, the GI50 was 2.36 µM in the experiment with SNB-75 CNS; 7.83 µM in the experiment with TK-10 renal; 4.66 µM with A549 NSCLC; 3.61 µM in the experiment with OVCAR-8 ovarian; 5.42 µM in the experiment with MDA-MB-231 breast; 3.79 µM in the experiment on NCI-H522 lung. In addition, the GI50 is 5.33 µM in the experiment with ACHN renal, 2.9 µM in the experiment on OVCAR-3 ovarian, 4.5 µM in the experiment on EKVX NSCLC and 4.37 µM in the experiment on SN12C renal. The TGI turned out to be 12.5 µM in the experiment with SNB-75 CNS; 20.8 µM in the experiment with TK-10 renal; 16.7 µM in the experiment with A549 NSCLC; 15.2 µM in the experiment on OVCAR-8 ovarian; 18.9 µM with MDA-MB-231 breast; 16.5 µM with NCI-H522 lung. For the same molecule, the TGI in the experiment on ACHN renal is 17.5 µM; in the experiment with OVCAR-3 ovarian it was 9.5 µM; in the experiment with EKVX NSCLC it was 25.5 µM; in the experiment on SN12C renal, 17.3 µM.
